The record followed here is patent publication US20230339878A1, “SLC26A3 INHIBITORS AND USE THEREOF” (THE REGENTS OF THE UNIVERSITY OF CALIFORNIA, priority 2018, published 2023).

“Also recorded” adds a separate entry of the source. Read-outs that look alike come from different tables or passages of the source.

The subject of assay [1] is cystic fibrosis (CF) mice (ΔF508 homozygous) lacking functional CFTR. As to the kind of experiment: Loperamide-induced constipation model in cystic fibrosis mice. The format is in vivo. As to conditions: 5 mg/kg oral. The protocol:
Female CD1 mice (age 8-10 weeks) were administered loperamide (0.3 mg/kg, intraperitoneally, Sigma-Aldrich) to produce constipation. Compound A1 (DRAinh-A250) (5 mg/kg, in saline containing vehicle (5% DMSO and 10% Kolliphor HS 15; Sigma-Aldrich)), tenapanor (5 mg/kg, in vehicle), both compounds (5 mg/kg each, in vehicle), or vehicle alone were administered by oral gavage 1 hour before loperamide. After loperamide injection, mice were placed individually in metabolic cages with ad libitum access to food and water. Stool samples were collected for 3 h, and total stool weight and number of fecal pellets were quantified. To measure stool water content, stool samples were dried at 80° C. for 24 h and water content was calculated as [wet weight-dry weight]/wet weight. Similar studies were done in cystic fibrosis (CF) mice (ΔF508 homozygous) lacking functional CFTR.

The target in assay [2] is T1, murine slc26a3 (Mus musculus, UniProt Q9WVC8).
T1 construct: host or cells: Fischer rat thyroid (FRT) cells expressing YFP, clonal line FRT-YFP-slc26a3
T1 sequence (Q9WVC8 1-757): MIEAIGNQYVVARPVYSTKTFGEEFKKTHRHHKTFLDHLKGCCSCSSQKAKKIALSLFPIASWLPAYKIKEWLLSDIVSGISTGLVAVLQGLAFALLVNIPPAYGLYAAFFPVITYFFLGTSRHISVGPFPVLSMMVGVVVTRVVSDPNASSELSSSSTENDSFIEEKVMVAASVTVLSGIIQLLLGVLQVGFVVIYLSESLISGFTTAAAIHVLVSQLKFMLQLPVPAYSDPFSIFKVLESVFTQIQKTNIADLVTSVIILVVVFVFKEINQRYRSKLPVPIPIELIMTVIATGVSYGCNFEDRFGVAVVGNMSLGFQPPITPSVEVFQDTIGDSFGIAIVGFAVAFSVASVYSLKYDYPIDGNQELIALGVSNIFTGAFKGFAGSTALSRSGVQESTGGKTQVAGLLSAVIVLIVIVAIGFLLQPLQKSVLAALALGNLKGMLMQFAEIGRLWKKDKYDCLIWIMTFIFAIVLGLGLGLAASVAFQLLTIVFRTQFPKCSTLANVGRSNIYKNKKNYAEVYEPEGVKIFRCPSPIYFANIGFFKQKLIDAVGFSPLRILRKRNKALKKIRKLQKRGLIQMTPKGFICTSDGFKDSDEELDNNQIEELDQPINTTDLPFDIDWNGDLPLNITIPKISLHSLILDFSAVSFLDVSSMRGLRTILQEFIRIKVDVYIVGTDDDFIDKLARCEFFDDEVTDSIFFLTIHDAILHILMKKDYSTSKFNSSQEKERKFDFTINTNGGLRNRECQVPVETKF
As to the kind of experiment: slc26a3-mediated Cl-/I- exchange, YFP fluorescence quenching in FRT-YFP-slc26a3 cells. The format is cell-based. Here is the method: High-throughput screening to identify slc26a3 inhibitors using FRT-YFP- slc26a3 cells was done with a semi-automated Beckman Coulter (Indianapolis, IN) platform with FLUOstar OMEGA plate readers (BMG Labtech, Cary, NC), essentially as described for discovery of pendrin inhibitors. Initial screening was done of ~50,000 drug-like synthetic small molecules (ChemDiv, San Diego, CA) at a concentration of 25 µM using a Cl^-/I^- exchange protocol to assay slc26a3 function. Following initial screening, compound analogs were purchased (ChemDiv, San Diego, CA) to generate structure-activity data.
For the screening, FRT-YFP-slc26a3 cells were plated in 96-well black-walled, clear-bottom tissue culture plates (Corning Life Sciences, Tewksbury, MA) at a density of 20,000 cells/well and cultured for 48 hours until confluent. For screening, cells were washed twice in PBS and incubated for 10 min in 100 µl PBS containing test compounds prior to assay of slc26a3 function. Assays were done using a FLUOstar OMEGA plate reader (BMG Labtech, Cary, NC) over 12 s with initial fluorescence recorded over 1 s prior to addition of 100 µl NaI-substituted PBS (137 mM NaCl replaced by 137 mM NaI) to drive Cl^-/I^- exchange. The initial rate of Cl^-/I^- exchange was determined from fluorescence intensity by single exponential regression. All plates contained wells with negative (1 % DMSO) and positive (350 µM niflumic acid) controls.
Screening was done using an FRT cell line stably expressing murine slc26a3 and a halide-sensitive yellow fluorescent protein (FRT-YFP- slc26a3 cells). FRT cells were used because of their low intrinsic permeability to anions that are transported by slc26a3, and because of their good adherence and rapid growth on uncoated plastic. As diagrammed in FIG. 1A, slc26a3-mediated transport was assayed from the kinetics of YFP fluorescence quenching in response to extracellular addition of I^- to drive Cl^-/I^- exchange; transport inhibition reduces the rate of fluorescence decrease.

The target of assay [3] is T2, slc26a3 (Mus musculus, UniProt Q9WVC8).
T2 construct: host or cells: Fischer rat thyroid (FRT) cells expressing YFP, clonal line FRT-YFP-slc26a3
T2 sequence (Q9WVC8 1-757): T1 sequence (Q9WVC8 1-757)
As to the kind of experiment: slc26a3-mediated Cl-/HCO3- exchange, BCECF cytoplasmic pH in slc26a3-expressing FRT cells. The note with it: increase in cytoplasmic pH, read-out: IC50 for inhibition of slc26a3-mediated Cl-/HCO3- exchange. The format is cell-based, murine. The protocol:
Concentration-dependence measurements for inhibition of slc26a3-mediated exchange of Cl^- and HCO3^-, the physiologically relevant activity of slc26a3, was measured using slc26a3-expressing FRT cells labeled with BCECF as a cytoplasmic pH sensor. Labeled cells were initially incubated in a Cl^--containing HCO3^- buffered solution, and HCO3^- influx / Cl^- efflux with cytoplasmic alkalinization was produced by addition of a gluconate-containing HCO3^- buffered solution. […] Concentration-dependence measurements for inhibition of slc26a3-mediated Cl^-/SCN^- exchange gave an IC50 of ~0.3 µM (FIG. 4B).
YFP-based assays of CFTR, pendrin and TMEM16A were as described. HEK cells transfected to express YFP and SLC26A3, slc26a6 or slc26a9 were functionally assayed using a Cl^-/I^- exchange protocol. Assays of Cl^-/HCO3^- exchange were done using BCECF as an intracellular pH indicator as described for pendrin. Short-circuit current (ISC) measurements in well-differentiated HBE cell cultures were done using techniques known in the art.

As to `Cc1c(CC(=O)O)c(=O)oc2c(C)c(OCc3cccc(Br)c3)ccc12` [Compound A1], the “efficacy in loperamide-induced constipation in CF mice” value in assay [1] is on record as “effective in loperamide-treated cystic fibrosis mice; also recorded: reduces loperamide-induced constipation”. In assay [2] (1 µM for 10 min, then washed three times), the reversibility of inhibition entry is “full reversibility; also recorded: fully and reversibly inhibited”. The IC50 was 0.15 µM in assay [2] (selected class A analogs, Table 1, Cl-/I- exchange, read-out: IC50); 0.1 to 0.2 µM in assay [2] (summary statement, read-out: IC50 for inhibition of SLC26A3-mediated anion exchange); roughly 0.1 µM in assay [3].
For the compound `Cc1c(CC(=O)O)c(=O)oc2c(C)c(OCc3cccc(I)c3)ccc12` [DRAinh-A270], the “potency compared to Compound A1 (DRAinh-A250)” value in assay [2] (FIG. 9) was “four-fold improved potency”. Moreover, the IC50 was roughly 0.05 µM in assay [2] (FIG. 9 concentration-inhibition curves, read-out: IC50 for slc26a3-mediated Cl-/I- exchange) and 0.04 µM in assay [2] (representative Class A compounds, Table 3, read-out: IC50).
